Measured values reported in ChEMBL document CHEMBL3045228, “QSAR study of a series of acyl coenzyme A (CoA): cholesterol acyltransferase inhibitors using genetic function approximation” (Med Chem Res, 2011).

Assay: Inhibition of Acyl-coenzyme A:cholesterol acyltransferase (unknown origin) assessed as intracellular cholesterol esterification by cell based assay
Details: Homo sapiens

| SMILES | IC50 (read-out: IC50) [nM] | IC50 (read-out: pIC50 (converted)) [nM] |
| --- | --- | --- |
| COc1ccc(NC(=C2C(=O)OC(C)(C)OC2=O)N(Cc2ccc(C(C)(C)C)cc2)C(C)CCCC(C)C)c(OC)c1 (stereo not drawn) | 230 | 230 |
| COc1cc(NC(NCCCCCCCCc2ccc(OCCC(C)C)cc2)=C2C(=O)OC(C)(C)OC2=O)cc(OC)c1OC | 3500 | 3500 |
| CCCCCC(C)N(Cc1ccc(CC(C)(C)C)cc1)C(Nc1ccc(OC)cc1OC)=C1C(=O)OC(C)(C)OC1=O (stereo not drawn) | 830 | 830 |
| CCCCCCOc1ccc(NC(=C2C(=O)OC(C)(C)OC2=O)N(Cc2ccc(CC(C)C)cc2)C(C)CCCCC)cc1 (stereo not drawn) | 410 | 410 |
| Cc1cc(N(C)C)cc(C)c1NC(NCCCCCCCCc1ccc(C(C)(C)C)cc1)=C1C(=O)OC(C)(C)OC1=O | 980 | 979 |
| COc1ccc(NC(NCCCCCCCCc2ccc(C(C)(C)C)cc2)=C2C(=O)OC(C)(C)OC2=O)c(OC)c1 | 900 | 899 |
| CN(C)c1ccc(NC(NCCCCCCCCc2ccc(C(C)(C)C)cc2)=C2C(=O)OC(C)(C)OC2=O)cc1 | 1100 | 1100 |
| CCCCCC(C)N(Cc1ccc(C(C)(C)C)cc1)C(Nc1ccc(OCCCC)cc1)=C1C(=O)OC(C)(C)OC1=O (stereo not drawn) | 230 | 230 |
| CC(C)Cc1ccc(CN(C(Nc2ccc(N(C)C)cc2)=C2C(=O)OC(C)(C)OC2=O)C(C)CCCC(C)(C)O)cc1 (stereo not drawn) | 5200 | 5200 |
| CC(C)CCOc1ccc(CCCCCCCCNC(Nc2ccc(N(C)C)cc2)=C2C(=O)OC(C)(C)OC2=O)cc1 | 370 | 370 |
| CCCCCC(C)N(Cc1ccc(CC(C)(C)C)cc1)C(Nc1c(C)cc(N(C)C)cc1C)=C1C(=O)OC(C)(C)OC1=O (stereo not drawn) | 380 | 380 |
| COc1ccc(NC(NCCc2ccccc2)=C2C(=O)OC(C)(C)OC2=O)c(OC)c1 | 2800 | 2800 |
| CCCCC(CC)N(Cc1ccc(CC(C)(C)C)cc1)C(Nc1ccc(OC)cc1OC)=C1C(=O)OC(C)(C)OC1=O (stereo not drawn) | 540 | 540 |
| CCCCCC(C)N(Cc1ccc(CCC(C)C)cc1)C(Nc1ccc(N(C)C)cc1C)=C1C(=O)OC(C)(C)OC1=O (stereo not drawn) | 160 | 160 |
| CCCCCCOc1ccc(NC(NCCCCCCCCc2ccc(C(C)(C)C)cc2)=C2C(=O)OC(C)(C)OC2=O)cc1 | 500 | 500 |
| COc1ccc(NC(=C2C(=O)OC(C)(C)OC2=O)N(Cc2ccc(CC(C)C)cc2C)C(CO[SiH](C)C)CC(C)C)c(OC)c1 (stereo not drawn) | 530 | 530 |
| CCCCCC(C)N(Cc1ccc(OCCC(C)C)cc1)C(Nc1ccc(N(C)C)cc1)=C1C(=O)OC(C)(C)OC1=O (stereo not drawn) | 210 | 210 |
| COc1ccc(NC(=C2C(=O)OC(C)(C)OC2=O)N(Cc2ccc(CC(C)(C)C)cc2)CC2CCCC2c2ccccc2)c(OC)c1 (stereo not drawn) | 290 | 290 |
| COc1ccc(NC(NCCCCCCCCCCCc2ccc(C(C)(C)C)cc2)=C2C(=O)OC(C)(C)OC2=O)c(OC)c1 | 2300 | 2300 |
| CCCCOc1ccc(NC(=C2C(=O)OC(C)(C)OC2=O)N(Cc2ccc(C(C)(C)C)cc2)C(C)CCCC(C)C)cc1 (stereo not drawn) | 690 | 690 |
| CCCCCC(C)N(Cc1ccc(CC(C)C)cc1)C(Nc1ccc(OC)cc1OC)=C1C(=O)OC(C)(C)OC1=O (stereo not drawn) | 240 | 240 |
| COc1ccc(NC(=C2C(=O)OC(C)(C)OC2=O)N(Cc2ccc(CC(C)C)cc2)C(C)CCCC(C)C)c(OC)c1 (stereo not drawn) | 370 | 370 |
| CCCCCc1ccc(CN(C(Nc2ccc(N(C)C)cc2)=C2C(=O)OC(C)(C)OC2=O)C(C)CCCCC)cc1 (stereo not drawn) | 260 | 260 |
| CCCCCC(C)N(Cc1ccc(OC(C)CCC)cc1)C(Nc1ccc(OC)cc1OC)=C1C(=O)OC(C)(C)OC1=O (stereo not drawn) | 540 | 540 |
